“Also recorded” adds a separate entry of the source.
Key:
RAEC monolayers [1] = test: TJ protein dissociation from ZO-1 (co-IP with ZO-1 as bait) in stretched RAEC monolayers; type: cell-based, rat; conditions: RAECs, 10 min of cyclic stretch
From the text: In the extracellular domain, the TJ is composed of claudins and occludin bound to TJ proteins of neighboring cells. In the intracellular domain, the claudins and occludin bind to actin via ZO-1. […] The present study tests the hypothesis that TJ dissociation between the ZO1 and the claudins and occludin is the primary causal mechanism for HER2-HER3 mediated barrier disruption. As preliminary evidence, RAEC monolayers (N=4) that were pretreated with NRG1 cleavage inhibitor TAPI-2, HER2 inhibitor AG825, or vehicle (VC) were stretched. […] The present study also confirmed stretch-induced TJ protein dissociation in lung slices.
(§1) each outcome measure, at each timepoint), at 0, 25, 37% ASA. To assess the effects of a longer stretch duration, RAEC monolayers from additional isolations (n=7 rats) were also subjected to cyclic stretch ASA of 0% (control) or 25% for 6 hrs. For every isolation, functional relationships will be confirmed in unstretched and stretched control groups treated with AG825 (HER2 inhibitor), anti-HER3ab (HER3 inhibitor), and tempol or tiron (superoxide scavenger), and compared with unstretched RAEC and PCLS treated with PMA to activate HER3 via NRG1 shedding as a positive control. In RAECs, results were compared to stretched and unstretched monolayers with separate treatments to evaluate downstream signaling pathway inhibition of ERK (U0126), PI3K (Wortmannin), Rac1 (EHT-1864 and ERK 1/2 siRNA [97] and LIMK1 (BMS4). Additional groups had NRG1 expression decreased by overexpressing miRNA-15b (negative regulator of NRG1), using scrambled oligonucleotide as a negative control. As a validation of or hierarchical platform, TJ expression, phosphorylation and arrangement results in PCLS were compared with RAECs. In all groups, monolayers were assigned to one of four quantitative outcome evaluations: alveolar paracellular permeability via BODIPY-oubain and streptavidin-FITC methods (see INNOVATION—Appendix I), TJ and actin arrangement by fixing RAECs and PCLSs for qualitative immunofluorescence, total and phosphorylated TJ content via Western blot, or ZO-1-bound TJ proteins by isolating protein for co-IP using ZO-1 as bait, followed by Western blotting for occludin, claudins 4, 7, and 18, and F-actin in the ZO-1 protein fraction.

rodent model of VILI = test: In vivo rodent model of VILI (large tidal volume mechanical ventilation); design: species or system rat; conditions: rats, Vt=25 ml/kg for 4 hrs, PEEP=0, AG825 1.67 mg/kg/day IP, 3 days
Procedure: Ventilated rats received one of […] treatments, intratracheal TAPI2 (used in vivo to inhibit NRG1 sheddase ADAM17) or […] AG825 or intravenous trastuzumab (to inhibit HER2), or will serve as ventilated vehicle-treated controls. Treatment windows were varied from 3 days prior ventilation to concurrent application, to identify an optimal, clinically-relevant therapeutic dose and timing. Dynamic compliance will be measured every 30 min. All animals were injected with FITC-albumin prior to ventilation, and alveolar permeability assessed prior to sacrifice by quantifying fluorescence of bronchoalveolar lavage (BAL) fluid normalized to serum fluorescence. Lungs were formalin-fixed after BAL, and hematoxylin/eosin stained sections were evaluated for hyaline membrane formation, interstitial edema, margination and infiltration of neutrophils, as well as intra-alveolar and perivascular hemorrhage. Compliance, permeability, and lung histology were compared across groups.

RAEC monolayers [2] = test: Stretch-associated permeability of RAEC monolayers (cyclic stretch); type: cell-based, rat; conditions: 10 min of stretch; for stretch-associated permeability: pretreated, vs vehicle controls
Procedure: As evidence that NRG1, HER2, and HER3 regulate stretch-associated increases in permeability, RAEC monolayers (N≥3-7/group) were exposed to 10 min of stretch, and compared vehicle controls (VC, black bars, FIG. 16—Appendix I) with those pretreated microRNA miR15-b to reduce NRG1 expression (FIG. 7, APPROACH—Appendix I), TAPI2 to inhibit ADAM17 and NRG1 cleavage (diagonal striped bars, FIG. 16—Appendix I), HER3 mAb to inhibit NRG1 binding (dark gray bars), or AG825 (white bars) to inhibit HER2 activation.
as §1, with “For every isolation, functional relationships will be confirmed in unstretched and stretched control groups treated with AG825 (HER2 inhibitor), anti-HER3ab (HER3 inhibitor), and tempol or tiron (superoxide scavenger), and compared with unstretched RAEC and PCLS treated with PMA to activate HER3 via NRG1 shedding as a positive control.” left out

[3] = system: mice treated with bleomycin to induce lung injury; conditions: relative to untreated mice; cited from earlier work

SMILES | TJ dissociation with stretch (RAEC monolayers [1]) | levels of TJ bound to ZO-1 after stretch vs unstretched controls (RAEC monolayers [1]) | protection against VILI (rodent model of VILI) | lung compliance (rodent model of VILI; 1.67 mg/kg/day) | permeability (barrier properties) in vivo (rodent model of VILI; 1.67 mg/kg/day) | barrier properties vs. unstretched VC (RAEC monolayers [2]) | stretch-associated permeability (RAEC monolayers [2]) | alveolar protein content [3]
COc1cc(/C=C(\C#N)C(N)=O)cc(CSc2nc3ccccc3s2)c1O [AG825] | reduces stretch-induced tight junction dissociation; also recorded: prevented | equal or greater after stretch than unstretched controls | dramatically protects against VILI | preserves lung compliance; also recorded: significant improvements in lung compliance | preserves barrier properties/moderates unwanted permeability; also recorded: significant improvements in lung compliance and permeability | maintained barrier properties at unstretched levels | significantly reduced stretch-associated permeability | –
CC(C)C[C@H](CC(=O)NO)C(=O)N[C@H](C(=O)N[C@@H](C)C(=O)NCCN)C(C)(C)C [TAPI2] | reduces stretch-induced tight junction dissociation; also recorded: prevented | equal or greater after stretch than unstretched controls | – | – | – | – | significantly reduced stretch-associated permeability | decreased alveolar protein content
